# Results taken from publication PMC8968063, “Key features of inhibitor binding to the human mitochondrial pyruvate carrier hetero-dimer” (Molecular Metabolism, 2022).
# Several values for one entry are separate records, joined by “and”; a condition that tells them apart may be missing. Equal values may be shown once.
# Assays:
# [1] = system: mammalian MPCs; settings: cited from earlier work
# [2] = biological target: T1, human MPC1L/MPC2 complex (Homo sapiens, UniProt O95563+P0DKB6); experiment: CPM thermostability shift assay, purified MPC1L/MPC2; type: binding; settings: for ΔTm at 100 µM / Tm, CPM assay / ∆Tm, CPM assay (thermal shift compared to no-ligand control): inhibitor 100 μM; for ΔTm at 100 µM: read-out: ∆Tm, CPM assay (thermal shift compared to no-ligand control); for Tm, CPM assay: unliganded 51.3 ± 0.2, mean ± s.d., 3 biological repeats
# T1 construct: eight-histidine tag (C, cleaved yes); TEV protease cleavage site (part stays on MPC2 after digestion) (C, cleaved yes); made in house; host or cells: Saccharomyces cerevisiae SHY15 (mpc triple deletion strain), purified from mitochondria
# T1 sequence (P0DKB6 2-136): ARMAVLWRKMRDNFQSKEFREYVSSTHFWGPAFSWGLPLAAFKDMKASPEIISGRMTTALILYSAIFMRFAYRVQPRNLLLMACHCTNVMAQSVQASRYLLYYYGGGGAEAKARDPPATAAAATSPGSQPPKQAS
# T1 sequence (O95563 2-127): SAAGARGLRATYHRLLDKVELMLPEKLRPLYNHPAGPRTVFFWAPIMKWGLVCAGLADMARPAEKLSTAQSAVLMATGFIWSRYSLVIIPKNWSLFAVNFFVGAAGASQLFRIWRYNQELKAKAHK
# Experimental: The assessment of ligand binding was performed via shifts in protein thermostability upon binding using thermal denaturation on a rotary quantitative PCR (qPCR) instrument (Qiagen Rotor-Gene Q 2plex HRM, Venlo, Netherlands), as previously described. In this method, cysteine residues, buried within the protein structure, become solvent-exposed during denaturation in a temperature ramp and then react with 7-diethylamino-3-(4-maleimidophenyl)-4-methylcoumarin (CPM) to form fluorescent-adducts. Briefly, a CPM working solution was prepared by diluting the CPM stock (5 mg/mL in dimethyl sulfoxide) 50-fold into assay buffer (20 mM Tris–HCl, pH 7.4, 150 mM NaCl, 0.1% (w/v) LMNG, 0.1 mg/mL TOCL) and incubated for 10 min at room temperature. In each analysis, performed in duplicates or triplicates, 3 μg of purified MPC was diluted into 45 μL of assay buffer containing the desired concentration of the inhibitor then incubated for 10 min on ice. Next, 5 μL of the CPM working solution were added. Samples were incubated on ice for an additional 10 min then subjected to a temperature ramp of 5.6 °C/min. The fluorescence increase was monitored with the HRM channel of the instrument (excitation at 440–480 nm, emission at 505–515 nm). Unfolding profiles were analysed with the Rotor-Gene Q software 2.3, and the peaks of their derivatives were used to determine the apparent melting temperature.
# [3] = biological target: T2, human MPC1L/MPC2 hetero-dimer (Homo sapiens, UniProt O95563+P0DKB6); experiment: Inhibition of [14C]-pyruvate homo-exchange in MPC1L/MPC2 proteoliposomes; type: biochemical; settings: for IC50: MPC1L/MPC2 proteoliposomes, 50 μM [14C]-pyruvate homo-exchange, mean ± s.d., read-out: IC50 of pyruvate transport inhibition
# T2 construct: eight-histidine tag (C, cleaved yes); TEV protease cleavage site (part stays on MPC2 after digestion) (C, cleaved yes); made in house; host or cells: Saccharomyces cerevisiae SHY15 (mpc triple deletion strain), purified from mitochondria
# T2 sequence (P0DKB6 2-136): T1 sequence (P0DKB6 2-136)
# T2 sequence (O95563 2-127): T1 sequence (O95563 2-127)
# Experimental: Egg L-α-phosphatidylcholine 99% (w/v) (Avanti Polar Lipids, AL, USA) and TOCL were mixed in a 20:1 (w/w) ratio, dried under a stream of nitrogen and washed once with methanol before being dried again. Lipids were hydrated in 20 mM Tris–HCl, pH 8.0, 50 mM NaCl to a concentration of 12 mg/mL. Unlabeled pyruvate was added as a freshly made concentrated stock at a final concentration of 5 mM for internalisation. Lipids were solubilised with 1.2% (v/v) pentaethylene glycol monodecyl ether (Sigma) and freshly purified protein was added at a lipid-to-protein ratio of 250:1 (w/w). Samples were incubated on ice for 5 min, then liposomes were formed by the step-wise removal of pentaethylene glycol monodecyl ether by five additions at 20 min intervals of 60 mg Bio-Beads SM-2 (Bio-Rad, Watford, UK) with gentle mixing at 4 °C. A final addition of 480 mg Bio-Beads was incubated with the samples overnight. Proteoliposomes were first separated from the Bio-Beads by passage through empty spin columns (Bio-Rad, Watford, UK) and subsequently pelleted at 120,000×g for 60 min. The proteoliposomes were resuspended with a thin needle in 150 μL of their supernatant after the rest of the supernatant was removed.
# The time course of pyruvate homo-exchange was measured at room temperature. The transport was initiated by diluting proteoliposomes 200-fold into external buffer, 20 mM MES, pH 6.4, 50 mM NaCl, containing 50 μM [^14C]-pyruvate (500,000 dpm, Perkin Elmer, MA, USA). The reaction (0–30 s) was terminated by rapid dilution into 8 volumes of ice-cold internal buffer (20 mM Tris–HCl, pH 8.0, 50 mM NaCl), followed by rapid filtration through cellulose nitrate 0.45 μm filters (Millipore, Gillingham, UK) and washing with an additional 8 volumes of buffer. The filters were dissolved in Ultima Gold scintillation liquid (Perkin Elmer, MA, USA) and the radioactivity was counted with a Perkin Elmer Tri-Carb 2800 RT liquid scintillation counter. […] The data analysis was performed with non-linear regression fittings using GraphPad Prism 7.0d ([Inhibitor] vs response, variable slope). The specific uptake rates were calculated based on the amount of protein used in reconstitutions, as estimated from bicinchoninic acid assay. The biological repeats represent independent proteoliposome preparations using protein from independent purifications.
# [4] = biological target: T1, human MPC1L/MPC2 complex; experiment: nano-DSF thermostability shift assay, purified MPC1L/MPC2; type: binding; settings: inhibitor 100 μM; for Tm, nano-DSF: unliganded 51.9 ± 0.1, mean ± s.d., 2 biological repeats
# Experimental: Ligand binding was also assessed using dye-free nano differential scanning fluorimetry (nano-DSF) to monitor fluorescence changes due to altered environments of tryptophan and tyrosine residues during unfolding. Protein samples in buffer containing 20 mM Tris–HCl pH 7.4, 150 mM NaCl, 0.1% (w/v) LMNG, 0.1 mg/mL TOCL, in the presence or absence of the indicated concentrations of small molecule inhibitors, were loaded into capillary tubes, and a temperature ramp of 5 °C/min was applied. The intrinsic fluorescence was measured using the NanoTemper Prometheus NT.48 (NanoTemper, München, Germany).
# [5] = biological target: T3, recombinant human MPC1L/MPC2 (Homo sapiens, UniProt O95563+P0DKB6); experiment: Electrospray mass spectrometry of MPC1L/MPC2 after reaction with inhibitors or sulfhydryl modifiers; settings: for Covalent modification of MPC protomers (molecular mass change): folded MPC1L/MPC2 incubated with compound, ESI-MS
# T3 construct: MPC1L (2–136); MPC2 (2–137); eight-histidine tag (C, cleaved yes); TEV protease cleavage site (part stays on MPC2 after digestion) (C, cleaved yes); made in house; host or cells: Saccharomyces cerevisiae SHY15 (mpc triple deletion strain), purified from mitochondria
# T3 sequence (P0DKB6 2-136 limits assumed): T1 sequence (P0DKB6 2-136)
# T3 sequence (O95563 2-127 limits assumed): T1 sequence (O95563 2-127)
# Experimental: Different MPC inhibitors (Table1) or sulfhydryl reagents were first incubated with MPC1L/MPC2 in a folded state, then the protein molecular masses were measured by electrospray mass spectrometry. The MPC subunits (10 μg) were resolved by reverse-phase HPLC on a PLRP-S column (1.0 mm i.d. X 75 mm; VARIAN) using a gradient of 2-propanol in a solvent system compatible with the recovery of membrane proteins (Carroll et al., 2009). The eluate (50 μL/min) was introduced into a QTRAP4000 (SCIEX) mass spectrometer operating in positive ion single MS mode. The instrument was scanned from 700 m/z to 2300 m/z after calibration with ions from a mixture of 1.0 μM of myoglobin and 1.5 μM trypsinogen. Molecular masses were obtained by reconstruction of the spectra of multiply charged ions using PeakView (SCIEX).
# [6] = number of covalent adducts from mass increase
# [7] = MPC1L/MPC2 after reaction with compound
structure (smiles),measurement,setting,value
O=C(O)C(F)=Cc1ccccc1 [α-fluorocinnamate],Potency relative to α-cyano-cinnamate (times less potent),[1],"1,000 times"
N#C/C(=C/c1ccc(-c2cccc([N+](=O)[O-])c2)o1)C(=O)O [Compound 9],ΔTm at 100 µM,[2],11.7 ± 2 °C
same,"Tm, CPM assay",[2],63.0 ± 1.8 °C
N#C/C(=C/c1ccc(-c2cccc(C(F)(F)F)c2)o1)C(=O)O [Compound 6],ΔTm at 100 µM,[2],8.5 ± 1.6 °C
same,"Tm, CPM assay",[2],59.8 ± 1.4 °C
"CCN(CC)C(=O)/C(C#N)=C/c1cc(O)c(O)c([N+](=O)[O-])c1 [Entacapone, (2E)-2-cyano-3-(3,4-dihydroxy-5-nitrophenyl)-N,N-diethylprop-2-enamide]",IC50,[3],630 ± 53 nM
same,"∆Tm, nano-DSF",[4],6.3 ± 1.1 °C
same,"Tm, nano-DSF",[4],58.2 ± 1.0 °C
COc1cc(C2Oc3cc([C@H]4Oc5cc(O)cc(O)c5C(=O)[C@@H]4O)ccc3OC2CO)ccc1O (stereo partly shown) [Silibinin],Thermal shift in the CPM assay,[2]; compound 1 mM,positive thermal shift
same,"∆Tm, CPM assay (thermal shift compared to no-ligand control)",[2],No thermal shifts
same,ΔTm at 100 µM,[2],0.1 ± 0.6 °C
same,"Tm, CPM assay",[2],51.4 ± 0.4 °C
same,"∆Tm, nano-DSF",[4],0.2 ± 0.3 °C
same,"∆Tm, nano-DSF",[4]; listed as silibinin,No thermal shifts
same,"Tm, nano-DSF",[4],52.1 ± 0.2 °C
CCN1C(=O)C=CC1=O [NEM],Covalent modification of MPC protomers (molecular mass change),[5],modified covalently
same,"Modifications, MPC1L (2–136)",[5]; [6],2 x NEM and 1 x NEM
same,"Modifications, MPC1L (5–136)",[5]; [6],unmodified and 1 x NEM and 2 x NEM and 3 x NEM
same,"Modifications, MPC2 (2–137)",[5]; [6],2 x NEM and 1 x NEM and 3 x NEM
"CN(CCOc1ccc(CC2SC(=O)NC2=O)cc1)c1ccccn1 (stereo not shown) [Rosiglitazone, rosiglitazone]",ΔTm at 100 µM,[2],5.3 ± 0.5 °C
same,"Tm, CPM assay",[2],56.6 ± 0.3 °C
"CCCC(CCC)C(=O)O [Valproic acid, valproic acid]",Effect on pyruvate transport,[3]; 1 mM final concentration,minimal
same,"∆Tm, CPM assay (thermal shift compared to no-ligand control)",[2],no effect at all
same,ΔTm at 100 µM,[2],0 °C
same,"Tm, CPM assay",[2],51.3 ± 0.3 °C
same,"∆Tm, nano-DSF",[4],-0.1 ± 0.3 °C
same,"Tm, nano-DSF",[4],51.8 ± 0.2 °C
CN1C(=O)NC(=O)/C(=C/c2ccc(-c3ccccc3[N+](=O)[O-])o2)C1=O [Compound 12],ΔTm at 100 µM,[2],9.1 ± 0.9 °C
same,"Tm, CPM assay",[2],60.4 ± 0.7 °C
"O=C1CN(/N=C/c2ccc([N+](=O)[O-])o2)C(=O)N1 [Nitrofurantoin, (E)-1-[(5-nitro-2-furyl)methylideneamino]imidazolidine-2,4-dione]",IC50,[3],3300 ± 2600 nM
N#C/C(=C/c1ccc(-c2ccccc2[N+](=O)[O-])o1)C(=O)O [Compound 7],IC50,[3],5.4 ± 1.1 nM
same,ΔTm at 100 µM,[2],16.5 ± 1.4 °C
same,"Tm, CPM assay",[2],67.8 ± 1.2 °C
same,"Mass difference (observed vs calculated), MPC1L (2–136)",[5]; [7],0.5 Da
same,"Mass difference (observed vs calculated), MPC1L (5–136)",[5]; [7],0.9 Da
same,"Mass difference (observed vs calculated), MPC2 (2–137)",[5]; [7],1.6 Da
same,Covalent modification of MPC protomers (molecular mass change),[5],no molecular mass differences
